Assay results from patent US6452052B1, “Aniline disulfide derivatives for treating allergic diseases” (Alcon Universal Ltd., priority 2000, dated 2002).
Where “and” joins values, the source holds several entries; their conditions need not be identical. Equal entries are not always repeated. Where two headings read alike, the source gives them in different places.

System: human conjunctival tissue mast cells
Assay: Inhibition of anti-human IgE-induced histamine release from human conjunctival tissue mast cells (HCTMC)
Assay type: cell-based
Protocol: Methods detailing preparation of monodispersed HCTMC and mediator release studies with these cells have been described (U.S. Pat. No. 5,360,720 and Miller et al, Ocular Immunology and Inflammation, 4(1):39-49 (1996)). Briefly, human conjunctival tissue mast cells were isolated from post-mortem tissue donors obtained within 8 hours of death by various eye banks and transported in Dexsol® corneal preservation medium, or equivalent. Tissues were enzymatically digested by repeated exposure (30 min. at 37° C.) to collagenase and hyaluronidase (2× with 200 U each/gram tissue, then 2-4× with 2000 U each/gram tissue) in Tyrode's buffer containing 0.1% gelatin. (Tyrode's buffer (in mM): 137 NaCl, 2.7 KCl, 0.35 NaH2PO4, 1.8 CaCl2, 0.98 MgCl2, 11.9 NaHCO3, and 5.5 glucose). Each digestion mixture was filtered over Nitex® cloth (100 μm mesh, Tetko, Briarcliff Manor, N.Y.) and washed with an equal volume of buffer. Filtrates were centrifuged at 825×g (7 min). Pellets were resuspended in buffer then combined for enrichment over a […] Percoll® cushion. The enriched pellet was washed, resuspended in supplemented RPMI 1640 medium and incubated at 37° C. to equilibrate.
Cells were harvested from the culture plate and counted for viability (trypan blue exclusion) and mast cell number (toluidine blue O). Mast cells (5000/tube; 1 mL final volume) were challenged (37° C.) for 15 min with goat-anti-human IgE (10 μg/mL) following treatment (15 minutes; 37° C.) with test drug or Tyrode's buffer. Total and non-specific release controls were exposed to 0.1% Triton X-100 and goat IgG (10 μg/mL), respectively. The reaction was terminated by centrifugation (500×g, 4° C., 10 min). Supernatants were stored at −20° C. until analyzed for histamine content by RIA (Beckman Coulter, Chicago, Ill.).
All test drugs were made to solution immediately prior to use. Each was dissolved in DMSO at 10 mM or greater concentration and then diluted in Tyrode's buffer containing 0.1% gelatin over the concentration for evaluation.
Inhibition of histamine release was determined by direct comparison of with anti-IgE challenged mast cells using Dunnett's t-test (Dunnett, “A multiple comparison procedure for comparing treatments with a control”, J. Amer. Stat. Assoc. (1955), 50:1096-1121).

[1] = Homo sapiens, Mast cell, bracketed value = mean of the two determinations, anti-IgE challenged human conjunctival mast cells, read-out: IC50(nM), inhibition of histamine release, value in square brackets
[2] = individual determinations, mast cells 5000/tube, 15 min drug treatment at 37° C., then 15 min challenge with goat-anti-human IgE (10 μg/mL), histamine by RIA, read-out: IC50(nM), inhibition of histamine release

Compound	IC50 [1]	IC50 [2]	IC50 (Homo sapiens, Mast cell, 0.25 h, individual determinations, mast cells 5000/tube, 15 min drug treatment at 37° C., then 15 min challenge with goat-anti-human IgE (10 μg/mL), histamine by RIA, read-out: IC50(nM), inhibition of histamine release)
C=CCC(=O)Nc1ccccc1SSc1ccccc1NC(=O)CC=C [Compound 1]	56 nM	85 nM and 27 nM	–
CC(=O)Nc1ccccc1SSc1ccccc1NC(C)=O [Compound 2]	481 nM	656 nM and 306 nM	–
C=C(C)C(=O)Nc1ccccc1SSc1ccccc1NC(=O)C(=C)C [Compound 3]	491 nM	690 nM and 292 nM	–
CC(O)CC(=O)Nc1ccccc1SSc1ccccc1NC(=O)CC(C)O (stereo not drawn) [Compound 4]	–	3180 nM and < 1000 nM	–
CCOC(=O)Nc1ccccc1SSc1ccccc1NC(=O)OCC [Compound 5]	1190 nM	–	–
CC(C)(C)C(=O)Nc1ccccc1SSc1ccccc1NC(=O)C(C)(C)C [Compound 6]	–	–	1700 nM
